{"source": "patent US9145419B2", "about": "“Imidazopyridazinyl compounds” (Bristol-Myers Squibb Company, priority 2010, dated 2015)"}
{"target": "Human CYP17 (Homo sapiens (Human), UniProt P05093)", "sequence (P05093 whole entry)": "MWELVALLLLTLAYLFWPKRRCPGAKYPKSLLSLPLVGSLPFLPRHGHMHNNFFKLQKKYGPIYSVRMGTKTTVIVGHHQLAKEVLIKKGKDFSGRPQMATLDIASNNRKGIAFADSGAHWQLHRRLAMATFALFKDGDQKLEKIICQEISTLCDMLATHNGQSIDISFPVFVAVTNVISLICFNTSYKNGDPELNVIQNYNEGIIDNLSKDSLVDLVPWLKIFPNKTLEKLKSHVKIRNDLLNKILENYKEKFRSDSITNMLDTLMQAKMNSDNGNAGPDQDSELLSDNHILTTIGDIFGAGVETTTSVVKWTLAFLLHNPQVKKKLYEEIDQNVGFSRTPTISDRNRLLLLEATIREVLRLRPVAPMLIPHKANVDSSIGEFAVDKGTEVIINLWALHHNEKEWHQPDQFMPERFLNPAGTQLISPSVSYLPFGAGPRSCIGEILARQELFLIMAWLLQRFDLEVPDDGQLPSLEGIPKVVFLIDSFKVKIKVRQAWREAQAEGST", "assay": "CYP17 Total SPA assay", "type": "biochemical", "details": "microsomes from HEK2 cells stably transfected with CYP17; 3H-Pregnenolone 1 uM, NADPH 2 mM", "description": "The assays were performed in U-bottom 384-well optiplates. The final assay volume was 15 μl prepared from 7.5 μl additions of microsomes (prepared as a high-speed pellet from homogenized HEK2 cells stably transfected with CYP17), substrates (3H-Pregnenolone and NADPH) and test compounds in assay buffer (50 mM Potassium phosphate pH 7.2, 10% glycerol). The reaction was initiated by the combination of the microsomes and substrates in wells containing compound. The reaction was incubated at room temperature for 45 minutes and terminated by adding 7.5 μl of 0.2N HCl to each well. Following an incubation period of 10 minutes, anti-DHEA-coated SPA beads were added to the terminated reaction. The plate was sealed and incubated overnight with shaking at 4° C. The beads were allowed to settle in the plate for 1 hour and the plate read on a TOPCOUNT® (Perkin-Elmer) plate reader.\nInhibition data were calculated by comparison to no enzyme control reactions for 100% inhibition and vehicle-only reactions for 0% inhibition. The final concentration of reagents in the assays are NADPH, 2 mM; 3H-Pregnenolone, 1 uM; microsomes, 1.25 ug/ml; Anti-DHEA-SPA beads (0.125 mg/well) in 0.5% Triton X-100 and DMSO, 0.05%. Dose response curves were generated to determine the concentration required inhibiting 50% of enzyme activity (IC50). Compounds were dissolved at 10 mM in dimethylsulfoxide (DMSO) and evaluated at eleven concentrations, each in duplicate. IC50 values were derived by non-linear regression analysis.", "units": {"IC50": "nM"}}
{"smiles": "Cc1ccncc1-c1ccnn2c(-c3ccccc3)cnc12", "note": "[Example 1, 8-(4-Methylpyridin-3-yl)-3-phenylimidazo[1,2-b]pyridazine]", "IC50": 41}
{"smiles": "COc1ccccc1-c1cnc2c(-c3cnccc3C)ccnn12", "note": "[Example 3, 3-(2-Methoxyphenyl)-8-(4-methylpyridin-3-yl)imidazo[1,2-b]pyridazine]", "IC50": 16}
{"smiles": "Cc1ccncc1-c1ccnn2c(-c3ccc(F)cc3)cnc12", "note": "[Example 7, 3-(4-fluorophenyl)-8-(4-methylpyridin-3-yl)imidazo[1,2-b]pyridazine]", "IC50": 56}
{"smiles": "Cc1cccc(-c2cnc3c(-c4cnccc4C)ccnn23)c1", "note": "[Example 9, 8-(4-methylpyridin-3-yl)-3-m-tolylimidazo[1,2-b]pyridazine]", "IC50": 120}
{"smiles": "Cc1ccncc1-c1ccnn2c(-c3cccc(Cl)c3)cnc12", "note": "[Example 11, 3-(3-chlorophenyl)-8-(4-methylpyridin-3-yl)imidazo[1,2-b]pyridazine]", "IC50": 97}
{"smiles": "Fc1ccc(-c2cnc3c(-c4cccnc4)ccnn23)cc1", "note": "[Example 26, 3-(4-fluorophenyl)-8-(pyridin-3-yl)imidazo[1,2-b]pyridazine]", "IC50": 524}
{"smiles": "Cc1ccncc1-c1ccnn2c(-c3cc(Cl)cc(Cl)c3)cnc12", "note": "[Example 34, 3-(3,5-dichlorophenyl)-8-(4-methylpyridin-3-yl)imidazo[1,2-b]pyridazine]", "IC50": 664}
{"smiles": "Cc1ccncc1-c1ccnn2c(-c3cccs3)cnc12", "note": "[Example 35, 8-(4-methylpyridin-3-yl)-3-(thiophen-2-yl)imidazo[1,2-b]pyridazine]", "IC50": 9}
{"smiles": "Cc1ccncc1-c1ccnn2c(-c3cccc(C(F)(F)F)c3)cnc12", "note": "[Example 37, 8-(4-methylpyridin-3-yl)-3-(3-(trifluoromethyl)phenyl)imidazo[1,2-b]pyridazine]", "IC50": 129}
{"smiles": "Cc1cc(C)cc(-c2cnc3c(-c4cnccc4C)ccnn23)c1", "note": "[Example 38, 3-(3,5-dimethylphenyl)-8-(4-methylpyridin-3-yl)imidazo[1,2-b]pyridazine]", "IC50": 279}
{"test_system": "testosterone levels", "assay": "1-Day Cyno PK/PD study", "type": "in vivo", "details": "cynomolgus monkeys, single oral dose 3 mg/Kg in 80% PEG-400/water, plasma, over 24 hour period", "description": "1-Day Cyno PK/PD Study Protocol\nAnimals: All procedures involving animals and their care were conducted in conformity with the guidelines that are in compliance with the Bristol-Myers Squibb Institutional Animal Care and Use Committee. Fully mature male cynomolgus monkeys (>4 yrs of age; 5-6 kg) were from an in-house colony. All the monkeys used had chronically implanted femoral vein access ports. For oral studies, all animals were fasted overnight prior to dosing and were fed 4 hr after dosing. All animals had free access to water and were conscious throughout the study.\nDrug: For all oral pharmacokinetic studies in cynomolgus monkeys, the tested compound was formulated in polyethylene glycol (PEG 400): water (80:20, v:v) at concentrations of 1-5 mg/mL. […]\nSampling: Blood samples were collected from the femoral port, at 15, 30, and 45 min, and 1, 2, 4, 6, 8, 12, 24, 30, and 48 hr after oral administration. […] The plasma fraction was immediately separated by centrifugation (14,000 rpm, 10 min, 4° C.), frozen on dry ice, and stored at −20° C. until the samples were analyzed.\nAnalysis of Tested Compound: Plasma samples were thawed and treated with two volumes of acetonitrile containing internal standard. After centrifugation to remove precipitated proteins, an aliquot of supernatant was analyzed by LC/MS/MS. […]", "units": {"testosterone levels": "ng/dL"}}
{"smiles": "Cc1ccncc1-c1ccnn2c(-c3ccc(F)cc3)cnc12", "note": "[Example 7, 3-(4-fluorophenyl)-8-(4-methylpyridin-3-yl)imidazo[1,2-b]pyridazine]", "testosterone levels": "~15"}
